How the values were obtained:
Bacillus megaterium = experiment: Phosphate solubilization assay with Bacillus megaterium (liquid NBRIP, malachite green); format: cell-based; conditions: 100 ug/mL; for clearing (consumption) of insoluble phosphate in culture tubes, qualitative: B. megaterium in NBRIP
Protocol: In some aspects, a compound disclosed herein, e.g., AB09, stimulates bacterial phosphate solubilization activity. […] Cultures of B. megaterium were grown in media containing only insoluble phosphorus with and without a compound such as AB09. At the start of the experiment, there was no detectable difference of orthophosphate levels in the growth media alone and media supplemented with B. megaterium and/or AB09. Orthophosphate was measured after 72 hours of bacterial growth. Specifically, A 5 mL culture of B. megaterium was seeded from a single colony into Nutrient Broth (NB) and grown overnight in a 30° C. shaker. The cell pellet was collected by centrifugation, washed twice and resuspended in water. The concentration of B. megaterium was measured using a Nanodrop OD600 reading. B. megaterium was inoculated into liquid NBRIP media, which contains insoluble tricalcium phosphate as its sole phosphorus source. The final concentration of B. megaterium in the NBRIP media was OD600=0.02 ([…]). NBRIP media was supplemented with ML in a 1% DMSO solution to a final concentration of 100 ug/ML or 1% DMSO (both were filter sterilized through a 0.2 uM filter). Cell counts at the start of the experiment (0 hours) and at 72 hours post inoculation were measured using dilution plating. At the experiment start and after 72 hours of growth, 1 mL of culture was collected from the culture tubes. The supernatant was collected by centrifugation (5 min at 13,000 rpm). The cleared supernatant was diluted […] in molecular grade water and used for orthophosphate analysis. The remaining 4 mL of supernatant were collected by centrifugation for pH readings. Orthophosphate was measured using the malachite-green phosphate method (BioAssay Systems Malachite Green Phosphate Assay Kit Catalog No: POMG-25H). Briefly, the sample is mixed with a solution of Malachite Green and molybdate, which forms a green complex with free orthophosphate from the sample. Data are quantified on a plate reader at 620 nm. Unknown samples were run with a standard curve of known concentrations of orthophosphate. […] Phosphate solubilization in NBRIP culture media is shown at experiment start (0 h) and after 72 hours of shaking at 30° C. The left axis corresponds to box plots and whisker plots of the concentration of solubilized phosphate in the bacterial supernatant. The right axis corresponds to the pH of the supernatant. n=7 culture tubes for each B. megaterium with and without ML, and n=3 culture tubes for no bacteria with and without AB09. The malachite green phosphate assay was performed in triplicate. […] In some instances, disclosed herein are experimental culture tubes of B. megaterium growing in NBRIP without ML (AB09; leftmost two tubes) and with 100 ug/mL ML (right three tubes).
A strain of Bacillus megaterium (B. megaterium) was isolated from Iowa field soil and confirmed its ability to solubilize phosphorus by observing a cleared zone (or halo) around B. megaterium colonies when grown on solid media (NBRIP+Agar) containing only in insoluble form of phosphorus, Ca3(PO4)2. Cultures of B. megaterium were then grown in liquid NBRIP (containing only insoluble Ca3(PO4)2) with and without AB09. The growth media supernatant was analyzed for orthophosphate at the start of the experiment (0 h) and after 72 hours of growth by the malachite green quantification method.
FIG. 1A illustrates phosphate solubilization in NBRIP culture media at experiment start (0 h) and after 72 hours of shaking at 30° C. The left axis corresponds to box plots and whisker plots of the concentration of available phosphate (orthophosphate) in the bacterial supernatant. […] The malachite green phosphate assay was performed in triplicate. FIG. 1B illustrates an example of experimental culture tubes of B. megaterium growing in NBRIP without AB09 (leftmost two tubes) and with 100 ug/mL AB09 (right three tubes). […]

[1] = test system: nif operon structural genes (nifH, nifD, and nifK); experiment: RNA-seq of Azotobacter vinlandii; format: cell-based; conditions: 25 ug/mL, nitrogen free media, 48 h, RNA-seq (FPKM)
Protocol: Global gene expression profiles of Azotobacter vinlandii grown in nitrogen free media were compared with and without AB09 treatment using RNA sequencing (RNA-seq).
A starter liquid culture of A. vinlandii in Burks-N media (at OD600=0.02) was divided into six flasks. Three flasks received AB09 at 25 ug/mL and three received a mock treatment. RNA was collected at 48 h of growth. One mL of 48 h cultures of Azotobacter vinlandii were pelleted for 3 minutes as 13,000 rpm. Supernatant was removed and pellets were flash frozen in liquid nitrogen. RNA was extracted with the Norgen RNA extraction kit. Ribo-depletion and sequencing libraries were constructed by Seqmatic, Inc. (Fremont, CA). Illumina single-end reads of 150 nt were mapped using bowtie (-v 2 -k2 -chunkmbs 3000) to the Azotobacter vinelandii CA (ASM38033v1) cds sequences. Custom perl scripts were used to extract the uniquely mapped reads and calculate the read count per million mapped reads (multi and uniquely mapped) per kilobase of gene for each gene.

## CC1=CC(Oc2c(C)occc2=O)OC1=O (stereo not drawn) [AB09, maltol lactone]
Bacillus megaterium; 72 hours, concurrent with phosphate solubilization increase
  pH of the growth media (supernatant): decrease
Bacillus megaterium
  clearing (consumption) of insoluble phosphate in culture tubes, qualitative: increased clearing
Bacillus megaterium; listed as ML
  clearing (consumption) of insoluble phosphate in culture tubes, qualitative: Increased consumption
Bacillus megaterium; NBRIP media with insoluble Ca3(PO4)2, 72 hours
  average concentration of orthophosphate in B. megaterium cultures compared to control cultures: significantly increased
Bacillus megaterium; NBRIP media, 72 hours, vs control B. megaterium cultures
  phosphate solubilization increase: two-fold
[1]
  expression of nif operon structural genes nifH, nifD and nifK over control cultures: increase
